From US20090297618A1, “COMPOSITION BENEFICIAL FOR VISUOGNOSIS PERSISTENCE AND USE THEREOF” (Zhejiang Medicine Co., Ltd. Xinchang Pharmaceutical Factory, priority 2008, published 2009)

System: subjects who use video display terminals (VDT) for long time and tend to have asthenopia
Assay: Human feeding test: detection of visuognosis persistence (asthenopia remission test)
Format: in vivo
Details: after feeding tablets 35 days, once per day, two tablets, compared with before feeding; FIG. 1
Source text: As used herein, the term “visuognosis persistence” is an index for evaluating asthenopia. When the cortical excitability in the human brain reduces, the visual analysis function decreases, in the process of eyes fixating at object, invisible duration will increase and visuognosis duration will decrease. […] X^2 test was used for performance indexes.

Work on CC1=C[C@H](O)CC(C)(C)[C@H]1/C=C/C(C)=C/C=C/C(C)=C/C=C/C=C(C)/C=C/C=C(C)/C=C/C1=C(C)C[C@@H](O)CC1(C)C [lutein] yielded a visuognosis persistence increased of 10.27±8.56%.
